Values joined by “and” are separate entries in the source; they are usually repeats but may differ in a detail not shown here. Equal values may be shown once.
Experiments:
[1] = Chemical stability of dexbudesonide HFA 134a composition of Example 4 in epoxy-phenol lacquered aluminium cans (HPLC, epimeric distribution); assay type: physicochemical
Procedure: A composition containing 48 mg of dexbudesonide (200 μg/dose), 15% (w/w) ethanol, 1.3% (w/w) glycerol in HFA 134a to 12 ml can was distributed in epoxy-phenol lacquered aluminium cans and was stored at 40° C.

[2] = Fine particle dose of dexbudesonide solution compositions, Andersen Cascade Impactor; assay type: physicochemical; conditions: for MMAD: low volatility compound 0.9% (w/w); for FPF: Fine particle dose/Delivered dose × 100; for Delivered dose: ex actuator; for FPD: particles lower than 4.7 μm, average of 10 shots; for Metered dose: sum of delivered dose and actuator residue
Procedure: The fine particle dose (FPD: weight of particles having an aerodynamic diameter lower than 4.7 μm) of dexbudesonide solution compositions in HFA 134a or HFA 227, prepared following the examples 4 and 5, was determined.
The experiments were performed using the Andersen Cascade Impactor and the data obtained are average values from 10 shots.
The FPD gives a direct measure of the mass of particles within the specified size range and is closely related to the efficacy of the product.

[3] = Chemical stability of dexbudesonide HFA 227 compositions of Example 5 in anodised aluminium cans (HPLC, epimeric distribution); assay type: physicochemical; conditions: for % Residual dexbudesonide / % residual dexbudesonide relative to t = 0: HFA 227, anodised aluminium cans
Procedure: Compositions containing 7.2, 12, 16.8 mg of dexbudesonide (corresponding to 30, 50 and 70 μg/dose respectively), ethanol, 0.9 (w/w) PEG 400 or isopropyl myristate (IPM) in HFA 227 to 12 ml can was distributed in aluminium anodised cans and was stored 70 days at 50° C.

[4] = Chemical stability of flunisolide HFA 134a composition of Example 7 in cans of different types (percent drug remaining, HPLC); assay type: physicochemical
Procedure: A composition containing 60 mg of flunisolide (250 μg/dose), […], 1% (w/w) glycerol in HFA 134a to 12 ml/can was distributed in anodised aluminium, glass cans or in cans having different internal coatings and were stored for 41 days at 50° C.

[5] = flunisolide/ethanol/HFA compositions of WO 95/17195, Table 8 of that application; cited from earlier work
[6] = Chemical stability of flunisolide HFA 134a composition of Example 7 in cans of different types (percent drug remaining, HPLC); assay type: physicochemical; remark: listed apart in the source
[7] = Effect of different acids on chemical stability of the composition of Example 1 in epoxy-phenol resin (4) coated cans; assay type: physicochemical; conditions: epoxy-phenol (4) coated cans
Procedure: The effect of different acids on the chemical stability of the composition of Example 1 was studied.
The stability of the compositions was tested after 1, 2 and 5 months storage at 40° C. in epoxy-phenol resin (4) coated cans.

[8] = HFA 134a, 60 μg/shot, ethanol 8% (w/w), IPM 0.9% (w/w)
[9] = HFA 227, 63 μg/shot, ethanol 7% (w/w), IPM 0.9% (w/w)
[10] = HFA 227, 63 μg/shot, ethanol 7% (w/w), PEG 400 0.9% (w/w)
[11] = metered dose 30 μg, ethanol 5% (w/w), IPM 0.9% (w/w), t = 70 days at 50° C.
[12] = metered dose 30 μg, ethanol 5% (w/w), PEG 400 0.9% (w/w), t = 70 days at 50° C.
[13] = metered dose 50 μg, ethanol 8% (w/w), IPM 0.9% (w/w), t = 70 days at 50° C.
[14] = metered dose 50 μg, ethanol 8% (w/w), PEG 400 0.9% (w/w), t = 70 days at 50° C.
[15] = metered dose 70 μg, ethanol 7% (w/w), IPM 0.9% (w/w), t = 70 days at 50° C.
[16] = metered dose 70 μg, ethanol 7% (w/w), PEG 400 0.9% (w/w), t = 70 days at 50° C.
[17] = can: Anodised aluminum, t = 41 days at 50° C.
[18] = can: Epoxy phenol resin (2), t = 41 days at 50° C.
[19] = can: Epoxy phenol resin (3), t = 41 days at 50° C.
[20] = can: Anodised aluminum, t = 93 days (50° C. per title)
[21] = can: Epoxy phenol resin (1), t = 41 days at 50° C.
[22] = can: Epoxy phenol resin (1), t = 93 days (50° C. per title)
[23] = can: Epoxy phenol resin (2), t = 93 days (50° C. per title)
[24] = can: Epoxy phenol resin (3), t = 93 days (50° C. per title)

CCC[C@@H]1O[C@@H]2C[C@H]3[C@@H]4CCC5=CC(=O)C=C[C@]5(C)[C@H]4[C@@H](O)C[C@]3(C)[C@]2(C(=O)CO)O1 [dexbudesonide]
percent drug remaining ([1]; 200 μg/dose, 15% (w/w) ethanol, 1.3% (w/w) glycerol, HFA 134a, 8 months at 40° C., average of two tests): 95.4%
epimeric distribution ([1]; Example 4 composition, stored at 40° C.): no transfer from the 22R to the 22S epimer
MMAD ([2]; HFA 134a solution formulation, 14.4 mg/can (60 μg/shot), ethanol 8% (w/w)): 2.0 μm
FPF [2, 8]: 73.6% and 77.4%
Delivered dose [2, 8]: 54.2 µg and 50.9 µg
FPD [2, 8]: 39.9 µg and 39.4 µg
Metered dose [2, 8]: 57.9 µg and 53.2 µg
FPF [2, 9]: 75.5%
Delivered dose [2, 9]: 59.7 µg
FPD [2, 9]: 45.0 µg
Metered dose [2, 9]: 63.9 µg
FPF [2, 10]: 78.9%
Delivered dose [2, 10]: 61.5 µg
FPD [2, 10]: 48.5 µg
Metered dose [2, 10]: 65.5 µg
MMAD ([2]; HFA 227 solution formulation, 15.12 mg/can (63 μg/shot), ethanol 7% (w/w)): 2.0 μm
epimeric distribution ([3]; Example 5 compositions, anodised aluminium cans, 70 days at 50° C.): no transfer from the 22R to the 22S epimer
% Residual dexbudesonide ([3]; metered dose 30 μg, ethanol 5% (w/w), IPM 0.9% (w/w), t = 0 days): 98.1%
% Residual dexbudesonide [3, 11]: 96.8%
% residual dexbudesonide relative to t = 0 [3, 11]: (98.7) %
% Residual dexbudesonide ([3]; metered dose 30 μg, ethanol 5% (w/w), PEG 400 0.9% (w/w), t = 0 days): 95.8%
% Residual dexbudesonide [3, 12]: 95.8%
% residual dexbudesonide relative to t = 0 [3, 12]: (100) %
% Residual dexbudesonide ([3]; metered dose 50 μg, ethanol 8% (w/w), IPM 0.9% (w/w), t = 0 days): 98.0%
% Residual dexbudesonide [3, 13]: 99.4%
% residual dexbudesonide relative to t = 0 [3, 13]: (101) %
% Residual dexbudesonide ([3]; metered dose 50 μg, ethanol 8% (w/w), PEG 400 0.9% (w/w), t = 0 days): 99.0%
% Residual dexbudesonide [3, 14]: 98.0%
% residual dexbudesonide relative to t = 0 [3, 14]: (98.9) %
% Residual dexbudesonide ([3]; metered dose 70 μg, ethanol 7% (w/w), IPM 0.9% (w/w), t = 0 days): 100.4%
% Residual dexbudesonide [3, 15]: 96.3%
% residual dexbudesonide relative to t = 0 [3, 15]: (96.0) %
% Residual dexbudesonide ([3]; metered dose 70 μg, ethanol 7% (w/w), PEG 400 0.9% (w/w), t = 0 days): 95.7%
% Residual dexbudesonide [3, 16]: 93.75%
% residual dexbudesonide relative to t = 0 [3, 16]: (98.0) %

CC1(C)O[C@@H]2C[C@H]3[C@@H]4C[C@H](F)C5=CC(=O)C=C[C@]5(C)[C@H]4[C@@H](O)C[C@]3(C)[C@]2(C(=O)CO)O1 [flunisolide]
% RESIDUAL FLUNISOLIDE ([4]; can: Anodised aluminum, t = 0): 101.6%
% RESIDUAL FLUNISOLIDE [4, 17]: 100.4%
% RESIDUAL FLUNISOLIDE RELATIVE TO t = 0 [4, 17]: (98.8) %
% RESIDUAL FLUNISOLIDE ([4]; can: Epoxy phenol resin (1), t = 0): 98.4%
% RESIDUAL FLUNISOLIDE ([4]; can: Epoxy phenol resin (2), t = 0): 101.9%
% RESIDUAL FLUNISOLIDE [4, 18]: 99.7%
% RESIDUAL FLUNISOLIDE RELATIVE TO t = 0 [4, 18]: (97.8) %
% RESIDUAL FLUNISOLIDE [4, 19]: 99.2%
decomposition in containers [5]: decomposes only in plastic cans
% RESIDUAL FLUNISOLIDE [6, 20]: 100.7%
% RESIDUAL FLUNISOLIDE RELATIVE TO t = 0 [6, 20]: (99.1) %
% RESIDUAL FLUNISOLIDE [6, 21]: 99.2%
% RESIDUAL FLUNISOLIDE RELATIVE TO t = 0 [6, 21]: (101) %
% RESIDUAL FLUNISOLIDE [6, 22]: 101.4%
% RESIDUAL FLUNISOLIDE RELATIVE TO t = 0 [6, 22]: (103) %
% RESIDUAL FLUNISOLIDE [6, 23]: 101.9%
% RESIDUAL FLUNISOLIDE RELATIVE TO t = 0 [6, 23]: (100) %
% RESIDUAL FLUNISOLIDE ([6]; can: Epoxy phenol resin (3), t = 0): 101.7%
% RESIDUAL FLUNISOLIDE RELATIVE TO t = 0 [6, 19]: (97.5) %
% RESIDUAL FLUNISOLIDE [6, 24]: 101.2%
% RESIDUAL FLUNISOLIDE RELATIVE TO t = 0 [6, 24]: (99.6) %
% RESIDUAL FLUNISOLIDE ([6]; can: Glass type III, t = 93 days (50° C. per title)): 97.5%

CC(C)[N+]1(C)[C@@H]2CC[C@H]1CC(OC(=O)C(CO)c1ccccc1)C2.[Br-] (some centres unmarked) [ipratropium bromide]
% RESIDUAL IPBr ([7]; acid: Ascorbic, t = 0): 119%
% RESIDUAL IPBr ([7]; acid: Ascorbic, t = 1 month at 40° C.): 113%
% RESIDUAL IPBr ([7]; acid: Ascorbic, t = 2 months at 40° C.): 112%
% RESIDUAL IPBr ([7]; acid: Ascorbic, t = 5 months at 40° C.): 110%
% RESIDUAL IPBr ([7]; acid: Citric (0.07% w/w), t = 1 month at 40° C.): 98%
% RESIDUAL IPBr ([7]; acid: Citric (0.3% w/w), t = 2 months at 40° C.): 100%
% RESIDUAL IPBr ([7]; acid: Citric (0.6% w/w), t = 0): 98%
% RESIDUAL IPBr ([7]; acid: Citric (0.6% w/w), t = 1 month at 40° C.): 98%
% RESIDUAL IPBr ([7]; acid: Hydrochloric (4 μl-1 N), t = 0): 101%
% RESIDUAL IPBr ([7]; acid: Hydrochloric (4 μl-1 N), t = 1 month at 40° C.): 100%
% RESIDUAL IPBr ([7]; acid: Hydrochloric (4 μl-1 N), t = 2 months at 40° C.): 104%
% RESIDUAL IPBr ([7]; acid: Hydrochloric (10 μl-1 N), t = 0): 101%
% RESIDUAL IPBr ([7]; acid: Hydrochloric (10 μl-1 N), t = 1 month at 40° C.): 98%
% RESIDUAL IPBr ([7]; acid: Hydrochloric (10 μl-1 N), t = 2 months at 40° C.): 98%
% RESIDUAL IPBr ([7]; acid: Hydrochloric (20 μl-1 N), t = 0): 100%
% RESIDUAL IPBr ([7]; acid: Hydrochloric (20 μl-1 N), t = 2 months at 40° C.): 98%
% RESIDUAL IPBr ([7]; acid: None, t = 2 months at 40° C.): 98%
